According to the supplement of paper PMC10307832:

Legend:
Test in all cases: relative viability (nuclei count vs DMSO), 5 days (fraction); higher = more cells survive
[1] = compound: CC(O)(CS(=O)(=O)c1ccc(F)cc1)C(=O)Nc1ccc(C#N)c(C(F)(F)F)c1 [Bicalutamide] + N=C(N)NC(=N)NCCc1ccccc1 [Phenformin] (partner 250 µM)
In short: (§1)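 For relative viability, nuclei counts in treated wells were divided by those in vehicle wells. Lung cancer cell lines had been pin-tool dosed in 1536-well plates the day after seeding and cultured for 5 days, then fixed and stained in one step (final 0.05% Triton X-100, 1% formaldehyde, 1 ug/ml Hoechst) and imaged at 4×. Doses were one drug alone or a fixed anchor-drug dose plus five library-drug doses (not always all listed) in √10 steps, and values are duplicate-plate medians.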

[2] = compound: C(C(=O)C(=O)O)Br [Bromopyruvate] + Cc1cc(Nc2cc(N3CCN(C)CC3)nc(Sc3ccc(NC(=O)C4CC4)cc3)n2)n[nH]1 [Tozasertib] (partner 0.1 µM)
In short: as §1

[3] = compound: C(C(=O)C(=O)O)Br [Bromopyruvate] + NC(=O)Nc1cc(-c2cccc(F)c2)sc1C(=O)N[C@H]1CCCNC1 [AZD7762] (partner 0.2 µM)
In short: as §1

[4] = compound: C(C(=O)C(=O)O)Br [Bromopyruvate] + Nc1nc2[nH]cc(CCc3ccc(C(=O)N[C@@H](CCC(=O)O)C(=O)O)cc3)c2c(=O)[nH]1 [Pemetrexed] (partner 0.2 µM)
In short: as §1

Cell Line | relative viability ([1]; first compound 0.08 µM) | relative viability ([1]; first compound 0.8 µM) | relative viability ([1]; first compound 2.53 µM) | relative viability ([2]; first compound 1 µM) | relative viability ([2]; first compound 3.162 µM) | relative viability ([2]; first compound 10 µM) | relative viability ([2]; first compound 31.62 µM) | relative viability ([2]; first compound 100 µM) | relative viability ([3]; first compound 1 µM) | relative viability ([3]; first compound 3.162 µM) | relative viability ([3]; first compound 10 µM) | relative viability ([3]; first compound 31.62 µM) | relative viability ([3]; first compound 100 µM) | relative viability ([1]; first compound 0.253 µM) | relative viability ([4]; first compound 1 µM) | relative viability ([4]; first compound 3.162 µM) | relative viability ([4]; first compound 10 µM) | relative viability ([4]; first compound 31.62 µM) | relative viability ([4]; first compound 100 µM)
NCI-H727 | 0.618 | 0.734 | 0.821 | 0.593 | 0.745 | 0.644 | 0.591 | 0.535 | 0.664 | 0.582 | 0.635 | 0.521 | 0.53 | – | – | – | – | – | –
NCI-H1563 | 0.695 | 0.654 | 0.629 | – | – | – | – | – | – | – | – | – | – | 0.718 | 0.815 | 0.717 | 0.823 | 0.674 | 0.757
NCI-H1623 | – | 0.587 | 0.55 | 0.419 | 0.423 | 0.527 | 0.468 | 0.369 | – | – | – | – | – | 0.594 | – | – | – | – | –
NCI-H1648 | – | – | – | 0.514 | 0.573 | 0.412 | 0.522 | 0.613 | 0.671 | 0.721 | 0.713 | 0.623 | 0.551 | – | 0.661 | 0.813 | 0.689 | 0.651 | 0.728
NCI-H1650 | 0.429 | 0.493 | 0.378 | 0.441 | 0.489 | 0.362 | 0.504 | 0.241 | – | – | – | – | – | 0.375 | 0.39 | 0.435 | 0.37 | 0.406 | 0.266
NCI-H1703 | – | – | – | – | – | – | – | – | 0.119 | 0.124 | 0.138 | 0.13 | 0.0978 | – | – | – | – | – | –
NCI-H1792 | 0.275 | 0.444 | 0.344 | – | – | – | – | – | 0.678 | 0.783 | 0.792 | 0.798 | 0.655 | – | 0.904 | 0.997 | 0.699 | 0.894 | 0.983
NCI-H2009 | 0.504 | 0.469 | 0.423 | 0.743 | 0.78 | 0.767 | 0.723 | 0.444 | – | – | – | – | – | 0.491 | 1.01 | 1.04 | 0.936 | 0.868 | 1.11
NCI-H2023 | 0.447 | 0.456 | 0.454 | 0.31 | 0.4 | 0.348 | 0.482 | 0.39 | – | – | – | – | – | 0.315 | 0.231 | 0.246 | 0.273 | 0.205 | 0.187
NCI-H2228 | 0.356 | 0.58 | 0.291 | 0.241 | 0.252 | 0.239 | 0.284 | 0.248 | – | – | – | – | – | 0.371 | 0.343 | 0.339 | 0.337 | 0.357 | 0.341
SK-LU-1 | 0.571 | 0.637 | 0.48 | 0.328 | 0.349 | 0.333 | 0.382 | 0.266 | – | – | – | – | – | 0.519 | 0.998 | 0.961 | 1.02 | 0.886 | 0.874
SK-MES-1 | 0.726 | 0.728 | 0.617 | 0.877 | 0.926 | 0.948 | 0.98 | 0.9 | – | – | – | – | – | 0.654 | 0.999 | 0.974 | 0.941 | 0.94 | 1.01
SW 1573 | 0.413 | 0.377 | 0.366 | 0.191 | 0.184 | 0.159 | 0.171 | 0.0582 | – | – | – | – | – | – | 0.783 | 0.792 | 0.899 | 0.436 | 0.0549
